In general, melting point refers to the temperature, or range, at which the solid turns liquid. In general, IC50 refers to the concentration that gives 50% inhibition.

A value given as a limit tells only on which side of the number the result lay.

Test system in the first series: not given
Test: not given
Conditions: not given
In turn, `Cc1cnc(CNC(=O)c2sc(N3C[C@@H](C)N(Cc4cc(F)cc(F)c4)C3=O)nc2C)cn1` [Example 2.13, (R)-2-(3-(3,5-difluorobenzyl)-4-methyl-2-oxoimidazolidin-1-yl)-4-methyl-N-((5-methylpyrazin-2-yl)methyl)thiazole-5-carboxamide] yielded a melting point of 131 to 132 °C.
Still for that read-out and setting: then `Cc1nnc(-c2sc(N3CCN(Cc4ccccc4)C3=O)nc2C)[nH]1` [Example 11, 1-benzyl-3-(4-methyl-5-(5-methyl-4H-1,2,4-triazol-3-yl)thiazol-2-yl)imidazolidin-2-one], with 284 to 287 °C; and `Cc1nc(N2CCN(Cc3cc(F)cc(F)c3)C2=O)sc1C(N)=O` [Example 1.8, 2-(3-(3,5-difluorobenzyl)-2-oxoimidazolidin-1-yl)-4-methylthiazole-5-carboxamide], with more than 200 °C; and `Cc1nc(N2C(=O)N(Cc3ccc(F)cc3)C[C@@H]2C)sc1C(=O)NCc1ccccn1` [Example 2.15, (S)-2-(3-(4-fluorobenzyl)-5-methyl-2-oxoimidazolidin-1-yl)-4-methyl-N-(pyridin-2-ylmethyl)thiazole-5-carboxamide], with 112 to 113 °C.
In the case of `Cc1nc(N2CCN(CC3CC3)C2=O)sc1C(=O)NCc1cccnn1` [Example 12.12, 2-(3-(cyclopropylmethyl)-2-oxoimidazolidin-1-yl)-4-methyl-N-(pyridazin-3-ylmethyl)thiazole-5-carboxamide], the melting point lay within 187 to 189 °C.
Turning to `Cc1nc(-n2cnn(CC3CC3(F)F)c2=O)sc1C(N)=O` (stereo not shown) [Example 16.6, 2-(1-((2,2-difluorocyclopropyl)methyl)-5-oxo-1H-1,2,4-triazol-4(5H)-yl)-4-methylthiazole-5-carboxamide], the melting point fell in the range of 273 to 275 °C.
Still for that read-out and setting: then `Cc1nc(N2CCN(Cc3ccc(F)cc3)C2=O)sc1-c1nn[nH]n1` [Example 18.1, 1-(4-fluorobenzyl)-3-(4-methyl-5-(2H-tetrazol-5-yl)thiazol-2-yl)imidazolidin-2-one], with 145 to 149 °C.
As to `Cc1nc(N2CCN(CCCC(F)(F)F)C2=O)sc1C(=O)NCc1ccncc1` [Example 12.7, 4-methyl-2-(2-oxo-3-(4,4,4-trifluorobutyl)imidazolidin-1-yl)-N-(pyridin-4-ylmethyl)thiazole-5-carboxamide], the melting point was in the range of 178 to 181 °C.
As for `Cc1nc(-n2cnn(Cc3ccc(F)cc3)c2=O)sc1-c1nn[nH]n1` [Example 18, 1-(4-fluorobenzyl)-4-(4-methyl-5-(2H-tetrazol-5-yl)thiazol-2-yl)-1H-1,2,4-triazol-5(4H)-one], the melting point lay in the range of 136 to 139 °C.
On the same count and under the same terms, the figure for `Cc1nc(-n2cnn(CC3CC3)c2=O)sc1C(=O)NCc1ccccn1` [Example 14.3, 2-(1-(Cyclopropylmethyl)-5-oxo-1H-1,2,4-triazol-4(5H)-yl)-4-methyl-N-(pyridin-2-ylmethyl)thiazole-5-carboxamide] is 160 to 161 °C.
As to `Cc1nc(N2CCN(CC3CC3)C2=O)sc1-c1cc[nH]n1` [Example 7, 1-(cyclopropylmethyl)-3-(4-methyl-5-(1H-pyrazol-3-yl)thiazol-2-yl)imidazolidin-2-one], the melting point lay within 169 to 171 °C.
Regarding `Cc1nc(N2CCN(Cc3ccc(C(F)(F)F)nc3)C2=O)sc1C(N)=O` [Example 1.10, 4-methyl-2-(2-oxo-3-((6-(trifluoromethyl)pyridine-3-yl)methyl)imidazolidin-1-yl)thiazole-5-carboxamide], the melting point lay within 225 to 228 °C.
Same read-out and setting: then `Cc1nc(-n2cnn(Cc3ccc(F)cc3)c2=O)sc1C(=O)NCc1cccc(N(C)C)c1` [Example 16.5, N-(3-(dimethylamino)benzyl)-2-(1-(4-fluorobenzyl)-5-oxo-1H-1,2,4-triazol-4(5H)-yl)-4-methylthiazole-5-carboxamide], with 149 to 151 °C.
Same read-out and setting: then `Cc1cc(CNC(=O)c2sc(N3C[C@@H](C)N(Cc4cc(F)cc(F)c4)C3=O)nc2C)no1` [Example 2.14, (R)-2-(3-(3,5-difluorobenzyl)-4-methyl-2-oxoimidazolidin-1-yl)-4-methyl-N-((5-methylisoxazol-3-yl)methyl)thiazole-5-carboxamide], with 63 to 66 °C; and `Cc1nc(N2CCN(CC(C)C)C2=O)sc1C(=O)NCc1ccncc1` [Example 12.17, 2-(3-isobutyl-2-oxoimidazolidin-1-yl)-4-methyl-N-(pyridin-4-ylmethyl)thiazole-5-carboxamide], with 185 to 187 °C; and `Cc1nc(N2CCN(Cc3ccc(F)cc3)C2=O)sc1-c1cc[nH]n1` [Example 9, 1-(4-fluorobenzyl)-3-(4-methyl-5-(1H-pyrazol-3-yl)thiazol-2-yl)imidazolidin-2-one], with 239 to 242 °C.
The same measure, in the same setting: the figure for `Cc1nc(N2CCN(CCCC(F)(F)F)C2=O)sc1C(=O)NCc1cccnc1` [Example 12.3, 4-methyl-2-(2-oxo-3-(4,4,4-trifluorobutyl)imidazolidin-1-yl)-N-(pyridin-3-ylmethyl)thiazole-5-carboxamide] is 167 to 169 °C.
Molecule `Cc1nc(N2CCN(CCCC(F)(F)F)C2=O)sc1-c1cc[nH]n1` [Example 17.1, 1-(4-methyl-5-(1H-pyrazol-3-yl)thiazol-2-yl)-3-(4,4,4-trifluorobutyl)imidazolidin-2-one] came in with a melting point of 185 to 186 °C.
For the molecule `Cc1cncc(CNC(=O)c2sc(N3CCN(CC(C)C)C3=O)nc2C)n1` [Example 12.20, 2-(3-isobutyl-2-oxoimidazolidin-1-yl)-4-methyl-N-((6-methylpyrazin-2-yl)methyl)thiazole-5-carboxamide], the melting point was in the range of 139 to 142 °C.
The same measure, in the same setting: then `Cc1csc(CNC(=O)c2sc(N3CCN(CC4CC4(F)F)C3=O)nc2C)n1` (stereo not shown) [Example 16.3, 2-(3-((2,2-difluorocyclopropyl)methyl)-2-oxoimidazolidin-1-yl)-4-methyl-N-((4-methylthiazol-2-yl)methyl)thiazole-5-carboxamide], with 157 to 159 °C; and `Cc1nc(-n2cnn(CC3CC3)c2=O)sc1C(=O)NCc1ccncc1` [Example 14, 2-(1-(cyclopropylmethyl)-5-oxo-1H-1,2,4-triazol-4(5H)-yl)-4-methyl-N-(pyridin-4-ylmethyl)thiazole-5-carboxamide], with 169 to 170 °C.

The target of another series is T1, stearoyl-CoA desaturase (SCD1) (Mus musculus, UniProt P13516).
T1 construct: Male ICR outbread mice, on a high-carbohydrate, low fat diet; from tissue; host or cells: liver microsomes of male ICR mice on a high-carbohydrate, low fat diet
T1 sequence (P13516 1-355): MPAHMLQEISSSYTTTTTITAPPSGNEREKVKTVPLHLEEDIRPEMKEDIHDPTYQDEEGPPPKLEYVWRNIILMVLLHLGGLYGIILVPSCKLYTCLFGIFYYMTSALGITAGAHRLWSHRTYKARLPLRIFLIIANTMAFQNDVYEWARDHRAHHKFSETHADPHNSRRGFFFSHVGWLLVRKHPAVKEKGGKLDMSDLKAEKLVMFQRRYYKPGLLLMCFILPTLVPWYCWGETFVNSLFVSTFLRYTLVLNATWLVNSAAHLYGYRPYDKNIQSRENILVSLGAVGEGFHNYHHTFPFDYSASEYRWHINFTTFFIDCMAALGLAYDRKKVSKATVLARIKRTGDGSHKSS
The series is described as follows: Stearoyl-CoA desaturase inhibition, mouse liver microsomes (release of 3H2O from [9,10-3H]stearoyl-CoA). Format: biochemical. Conditions: 15 min incubation, 25° C., read-out: Microsomal IC50. The source says: The identification of compounds of the invention as SCD inhibitors was readily accomplished using the SCD enzyme and microsomal assay procedure described in Shanklin J. and Summerville C., Proc. Natl. Acad. Sci. USA (1991), Vol. 88, pp. 2510-2514.
Measuring Stearoyl-CoA Desaturase Inhibition Activity of a Test Compound Using Mouse Liver Microsomes
The identification of compounds of the invention as SCD inhibitors was readily accomplished using the SCD microsomal assay procedure described in Shanklin J. and Summerville C., Proc. Natl. Acad. Sci. USA (1991), Vol. 88, pp. 2510-2514.
Male ICR outbread mice, on a high-carbohydrate, low fat diet, under light halothane (15% in mineral oil) anesthesia are sacrificed by exsanguination during periods of high enzyme activity. Livers are immediately rinsed with cold 0.9% NaCl solution, weighed and minced with scissors. All procedures are performed at 4° C. unless specified otherwise. Livers are homogenized in a solution (1/3 w/v) containing 0.25 M sucrose, 62 mM potassium phosphate buffer (pH 7.0), 0.15 M KCl, 15 mM N-acetyleysteine, 5 mM MgCl2, and 0.1 mM EDTA using 4 strokes of a Potter-Elvehjem tissue homogenizer. The homogenate is centrifuged at 10,400×g for 20 min to eliminate mitochondria and cellular debris. The supernatant is filtered through a 3-layer cheesecloth and centrifuged at 105,000×g for 60 min. The microsomal pellet is gently resuspended in the same homogenization solution with a small glass/teflon homogenizer and stored at −70° C. The absence of mitochondrial contamination is enzymatically assessed. The protein concentration is measured using bovine serum albumin as the standard.
Desaturase activity is measured as the release of ^3H2O from [9,10-^3H]stearoyl-CoA. Reactions per assay point conditions are as follows: 2 μL 1.5 mM stearoyl-CoA, 0.25 μL 1 mCi/mL ^3H stearoyl CoA, 10 μL 20 mM NADH, 36.75 μL 0.1 M PK buffer (K2HPO4/NaH2PO4, pH 7.2). The test compound or control solution is added in a 1 μL volume. Reactions are started by adding 50 μL of microsomes (1.25 mg/mL). The plates are mixed and after 15 min incubation on a heating block (25° C.), the reactions are stopped by the addition of 10 μL 60% PCA. An aliquot of 100 μL is then transferred to a filter plate pretreated with charcoal and the plate centrifuged at 4000 rpm for 1 minute. The flow through containing the ^3H2O released by the SCD1 desaturation reaction is added to scintillation fluid and the radioactivity measured in a Packard TopCount. The data is analysed to identify the IC50 for test compounds and reference compounds.
The activity was defined in terms of % SCD enzyme activity remaining at the desired concentration of the test compound or as the IC50 concentration. The IC50 (affinity) of the example compounds toward the stearoyl-CoA desaturase is comprised between around […] and 0.0001 μM or between around 5 μM and 0.0001 μM or between around 1 μM and 0.0001 μM.
On the technique in general: Microsomes from liver hold many membrane-bound enzymes, among them those of drug oxidation.
`Cc1nc(-n2cnn(C(C)c3ccccc3)c2=O)sc1C(N)=O` (stereo not shown) [Example 20-6, 4-methyl-2-(5-oxo-1-(1-phenylethyl)-1H-1,2,4-triazol-4(5H)-yl)thiazole-5-carboxamide]: the IC50 came to 80 nM.
Same read-out and setting: then `Cc1nc(-n2cnn(CC3CC3(F)F)c2=O)sc1C(=O)NCc1cncs1` (stereo not shown) [Example 20-12, 2-(1-((2,2-difluorocyclopropyl)methyl)-5-oxo-1H-1,2,4-triazol-4(5H)-yl)-4-methyl-N-(thiazol-5-ylmethyl)thiazole-5-carboxamide], with 18 nM; and `Cc1nc(-n2cnn(Cc3ccc(F)cc3)c2=O)sc1C(=O)NCc1ccc(C(F)(F)F)nc1` [Example 20-8, 2-(1-(4-fluorobenzyl)-5-oxo-1H-1,2,4-triazol-4(5H)-yl)-4-methyl-N-((6-(trifluoromethyl)pyridin-3-yl)methyl)thiazole-5-carboxamide], with 1720 nM.
The same measure, in the same setting: then `Cc1nc(N2CCN(C(C)c3ccccc3)C2=O)sc1C(=O)NCc1cncs1` (stereo not shown) [Example 20-26, 4-methyl-2-(2-oxo-3-(1-phenylethyl)-imidazolidin-1-yl)-N-(thiazol-5-yl-methyl)thiazole-5-carboxamide], with 11 nM.

Source of the values: patent publication US8318949B2, “Organic compounds” (Novartis AG, priority 2008, dated 2012).
